# US20100298141A1, “SUBSTITUTED PYRIDINE N-OXIDE HERBICIDES” (E. I. DU PONT DE NEMOURS AND COMPANY, priority 2007, published 2010)
# Assays:
# barnyardgrass [1] = assay: Test C flooded paddy test; assay type: in vivo, Echinochloa crus-galli; settings: Flood
# How it was run: (§1)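 Greenhouse pots flooded to 3 cm above soil at time of treatment received compound via the water, which stayed at that level.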
# lambsquarters = assay: Test C pre-/postemergence test; assay type: in vivo, Chenopodium album; settings: for Plant response rating, Lambsquarters: 31 g ai/ha, scale 0 to 100 (0 no effect, 100 complete control)
# How it was run: (§2)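 Test chemicals were formulated with surfactant in a non-phytotoxic solvent and sprayed both on freshly planted seeds (preemergence) and on 1- to 4-leaf plants of 2–18 cm (postemergence). Flooded-paddy pots received compound directly into 3 cm of standing water, maintained for the test.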
# barnyardgrass [2] = assay: Test A pre-/postemergence greenhouse test; assay type: in vivo, Echinochloa crus-galli; settings: for Plant response rating, Barnyardgrass: 0 to 100 scale where 0 is no effect and 100 is complete control; for Barnyardgrass plant response rating: 0 to 100 scale
# How it was run: (§3)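 Visual injury ratings, made relative to untreated controls roughly ten days after treatment, cover both preemergence and postemergence application. Compounds in a surfactant-containing non-phytotoxic solvent were sprayed onto the soil surface after sowing and, simultaneously, onto young plants at the one- to two-leaf stage.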
# kochia = assay: Test C pre-/postemergence test; assay type: in vivo, Kochia scoparia; settings: for Plant response rating, Kochia: 31 g ai/ha, scale 0 to 100 (0 no effect, 100 complete control)
# How it was run: as §2
# pigweed = assay: Test C pre-/postemergence test; assay type: in vivo, Amaranthus retroflexus; settings: for Plant response rating, Pigweed: 31 g ai/ha, scale 0 to 100 (0 no effect, 100 complete control)
# How it was run: as §2
# cocklebur = assay: Test C pre-/postemergence test; assay type: in vivo, Xanthium strumarium; settings: for Plant response rating, Cocklebur: 31 g ai/ha, scale 0 to 100 (0 no effect, 100 complete control)
# How it was run: as §2
# soybean = assay: Test C pre-/postemergence test; assay type: in vivo, Glycine max
# How it was run: as §2
# umbrella sedge = assay: Test C flooded paddy test; assay type: in vivo, Cyperus difformis; settings: Flood
# How it was run: as §1
# bermudagrass = assay: Test C pre-/postemergence test; assay type: in vivo, Cynodon dactylon; settings: for Plant response rating, Bermudagrass: 31 g ai/ha
# How it was run: as §2
# Italian ryegrass = assay: Test C pre-/postemergence test; assay type: in vivo, Lolium multiflorum; settings: for Plant response rating, Ryegrass, Italian: 31 g ai/ha, scale 0 to 100 (0 no effect, 100 complete control)
# How it was run: as §2
# crabgrass [3] = assay: Test A pre-/postemergence greenhouse test; assay type: in vivo, Digitaria sanguinalis; settings: for Plant response rating, Crabgrass, Large: 0 to 100 scale where 0 is no effect and 100 is complete control; for Crabgrass, Large plant response rating: 0 to 100 scale
# How it was run: as §3
# Surinam grass = assay: Test C pre-/postemergence test; assay type: in vivo, Brachiaria decumbens; settings: for Plant response rating, Surinam Grass: 31 g ai/ha, scale 0 to 100 (0 no effect, 100 complete control)
# How it was run: as §2
# crabgrass [4] = assay: Test C pre-/postemergence test; assay type: in vivo, Digitaria sanguinalis; settings: for Plant response rating, Crabgrass, Large: 31 g ai/ha, scale 0 to 100 (0 no effect, 100 complete control)
# How it was run: as §2
# [5] = system: common (oilseed) sunflower; assay: Test C pre-/postemergence test; assay type: in vivo, Helianthus annuus
# How it was run: as §2
# giant foxtail = assay: Test A pre-/postemergence greenhouse test; assay type: in vivo, Setaria faberi; settings: for Plant response rating, Foxtail, Giant: 0 to 100 scale where 0 is no effect and 100 is complete control; for Foxtail, Giant plant response rating: 0 to 100 scale
# How it was run: as §3
# morningglory = assay: Test A pre-/postemergence greenhouse test; assay type: in vivo, Ipomoea spp.; settings: for Plant response rating, Morningglory: 0 to 100 scale where 0 is no effect and 100 is complete control; for Morningglory plant response rating: 0 to 100 scale
# How it was run: as §3
# Goosegrass = assay: Test C pre-/postemergence test; assay type: in vivo, Eleusin indica; settings: for Plant response rating, Goosegrass: 31 g ai/ha, scale 0 to 100 (0 no effect, 100 complete control)
# How it was run: as §2
# [6] = 62 g ai/ha, scale 0 to 100 (0 no effect, 100 complete control)
# [7] = 250 g ai/ha, scale 0 to 100, 0 no effect, 100 complete control, 13 to 15 days
# [8] = 62 g ai/ha, Preemergence, scale 0 to 100
# [9] = 125 g ai/ha, preemergence, scale 0 (no effect) to 100 (complete control)
# [10] = preemergence, 250 g ai/ha, scale 0 (no effect) to 100 (complete control)
# [11] = Postemergence, 500 g ai/ha, 0 is no effect, 100 is complete control
# [12] = Preemergence, 125 g ai/ha, 0 no effect, 100 complete control
# [13] = Preemergence, 500 g ai/ha, 0 no effect, 100 complete control
# [14] = Preemergence, 31 g ai/ha, scale 0 to 100 (0 no effect, 100 complete control)
# [15] = 62 g ai/ha, Preemergence, scale 0 to 100 (0 no effect, 100 complete control)
# [16] = Preemergence, scale 0 to 100 (0 no effect, 100 complete control)
# [17] = 31 g ai/ha, scale 0 to 100 (0 no effect, 100 complete control)
# [18] = 62 g ai/ha, scale 0 to 100, 0 no effect, 100 complete control, 13 to 15 days
# [19] = 125 g ai/ha, scale 0 to 100, 0 no effect, 100 complete control, 13 to 15 days
# [20] = Postemergence, 125 g ai/ha, 0 is no effect, 100 is complete control
# [21] = preemergence, 125 g ai/ha, scale 0 (no effect) to 100 (complete control)
smiles,measurement,setting,value
CCc1cc[n+]([O-])c(S(=O)(=O)Cc2c(C(F)(F)F)nn(C)c2OC(F)F)c1 [Compound 102],"Plant response rating, Barnyardgrass",barnyardgrass [1]; [6],0
same,"Plant response rating, Barnyardgrass",barnyardgrass [1]; [7],0
same,Lambsquarters plant response rating,lambsquarters; [8],80
same,Lambsquarters plant response rating,lambsquarters; [9],100
same,"Plant response rating, Lambsquarters",lambsquarters; Preemergence,40
same,Lambsquarters plant response rating,lambsquarters; [10],100
same,"Plant response rating, Barnyardgrass","barnyardgrass [2]; Postemergence, 125 g ai/ha",70
same,Barnyardgrass plant response rating,barnyardgrass [2]; [11],80
same,Barnyardgrass plant response rating,barnyardgrass [2]; [12],80
same,Barnyardgrass plant response rating,barnyardgrass [2]; [13],100
same,Kochia plant response rating,kochia; [8],70
same,Kochia plant response rating,kochia; [9],100
same,"Plant response rating, Kochia",kochia; Preemergence,70
same,Kochia plant response rating,kochia; [10],100
same,Pigweed plant response rating,pigweed; [8],95
same,Pigweed plant response rating,pigweed; [9],100
same,"Plant response rating, Pigweed",pigweed; Preemergence,60
same,Pigweed plant response rating,pigweed; [10],100
same,Cocklebur plant response rating,cocklebur; [8],0
same,Cocklebur plant response rating,cocklebur; [9],0
same,"Plant response rating, Cocklebur",cocklebur; Preemergence,0
same,Cocklebur plant response rating,cocklebur; [10],0
same,Soybean plant response rating,soybean; [9],65
same,"Plant response rating, Soybean",soybean; [14],50
same,Soybean plant response rating,soybean; [10],80
same,"Plant response rating, Sedge, Umbrella",umbrella sedge; [6],0
same,"Plant response rating, Sedge, Umbrella",umbrella sedge; [7],70
same,Bermudagrass plant response rating,bermudagrass; [15],85
same,Bermudagrass plant response rating,bermudagrass; [9],100
same,"Plant response rating, Bermudagrass",bermudagrass; [16],85
same,Bermudagrass plant response rating,bermudagrass; [10],100
same,"Ryegrass, Italian plant response rating",Italian ryegrass; [8],0
same,"Ryegrass, Italian plant response rating",Italian ryegrass; [9],0
same,"Plant response rating, Ryegrass, Italian",Italian ryegrass; Preemergence,0
same,"Ryegrass, Italian plant response rating",Italian ryegrass; [10],20
same,"Plant response rating, Crabgrass, Large","crabgrass [3]; Postemergence, 125 g ai/ha",60
same,"Crabgrass, Large plant response rating",crabgrass [3]; [11],90
same,"Crabgrass, Large plant response rating",crabgrass [3]; [12],90
same,"Crabgrass, Large plant response rating",crabgrass [3]; [13],90
same,Surinam Grass plant response rating,Surinam grass; [8],70
same,Surinam Grass plant response rating,Surinam grass; [9],70
same,"Plant response rating, Surinam Grass",Surinam grass; Preemergence,65
same,Surinam Grass plant response rating,Surinam grass; [10],95
same,"Crabgrass, Large plant response rating",crabgrass [4]; [8],95
same,"Crabgrass, Large plant response rating",crabgrass [4]; [9],95
same,"Plant response rating, Crabgrass, Large",crabgrass [4]; Preemergence,70
same,"Crabgrass, Large plant response rating",crabgrass [4]; [10],100
same,Sunflower plant response rating,[5]; [8],0
same,Sunflower plant response rating,[5]; [9],60
same,Sunflower plant response rating,[5]; [10],80
same,"Plant response rating, Foxtail, Giant","giant foxtail; Postemergence, 125 g ai/ha",80
same,"Foxtail, Giant plant response rating",giant foxtail; [11],90
same,"Foxtail, Giant plant response rating",giant foxtail; [12],90
same,"Foxtail, Giant plant response rating",giant foxtail; [13],100
same,"Plant response rating, Morningglory","morningglory; Postemergence, 125 g ai/ha",50
same,Morningglory plant response rating,morningglory; [11],100
same,Morningglory plant response rating,morningglory; [12],100
same,Morningglory plant response rating,morningglory; [13],100
same,Goosegrass plant response rating,Goosegrass; [8],98
same,Goosegrass plant response rating,Goosegrass; [9],100
same,"Plant response rating, Goosegrass",Goosegrass; Preemergence,85
same,Goosegrass plant response rating,Goosegrass; [10],100
Cn1nc(C(F)(F)F)c(C[S+]([O-])c2cccc[n+]2[O-])c1OCC(F)(F)F (racemic) [Compound 28],"Plant response rating, Barnyardgrass",barnyardgrass [1]; [17],0
same,"Plant response rating, Barnyardgrass",barnyardgrass [1]; [18],20
same,"Plant response rating, Barnyardgrass",barnyardgrass [1]; [19],65
same,"Plant response rating, Barnyardgrass","barnyardgrass [1]; 250 g ai/ha, scale 0 to 100 (0 no effect, 100 complete control)",85
same,Lambsquarters plant response rating,lambsquarters; [8],100
same,"Plant response rating, Lambsquarters",lambsquarters; Preemergence,100
same,Barnyardgrass plant response rating,barnyardgrass [2]; [20],80
same,Barnyardgrass plant response rating,barnyardgrass [2]; [11],90
same,Barnyardgrass plant response rating,barnyardgrass [2]; [12],90
same,"Plant response rating, Barnyardgrass","barnyardgrass [2]; Preemergence, 500 g ai/ha",100
same,Kochia plant response rating,kochia; [8],100
same,"Plant response rating, Kochia",kochia; Preemergence,100
same,Pigweed plant response rating,pigweed; [8],100
same,"Plant response rating, Pigweed",pigweed; Preemergence,100
same,Cocklebur plant response rating,cocklebur; [8],10
same,"Plant response rating, Cocklebur",cocklebur; Preemergence,0
same,"Plant response rating (0 to 100), Cocklebur","cocklebur; Preemergence, 250 g ai/ha",65
same,Cocklebur plant response rating,cocklebur; [21],50
same,Soybean plant response rating,soybean; [8],95
same,"Plant response rating, Sedge, Umbrella",umbrella sedge; [17],75
same,"Plant response rating, Sedge, Umbrella",umbrella sedge; [18],95
same,"Plant response rating, Sedge, Umbrella",umbrella sedge; [19],100
same,"Plant response rating, Sedge, Umbrella",umbrella sedge; [7],100
same,Bermudagrass plant response rating,bermudagrass; [15],100
same,"Plant response rating, Bermudagrass",bermudagrass; [16],100
same,"Plant response rating (0 to 100), Bermudagrass","bermudagrass; Preemergence, 250 g ai/ha",100
same,Bermudagrass plant response rating,bermudagrass; [21],100
same,"Ryegrass, Italian plant response rating",Italian ryegrass; [8],85
same,"Plant response rating, Ryegrass, Italian",Italian ryegrass; Preemergence,80
same,"Crabgrass, Large plant response rating",crabgrass [3]; [20],80
same,"Crabgrass, Large plant response rating",crabgrass [3]; [11],90
same,"Crabgrass, Large plant response rating",crabgrass [3]; [12],100
same,"Plant response rating, Crabgrass, Large","crabgrass [3]; Preemergence, 500 g ai/ha",100
same,Surinam Grass plant response rating,Surinam grass; [8],100
same,"Plant response rating, Surinam Grass",Surinam grass; Preemergence,85
same,"Crabgrass, Large plant response rating",crabgrass [4]; [8],100
same,"Plant response rating, Crabgrass, Large",crabgrass [4]; Preemergence,100
same,"Plant response rating (0 to 100), Crabgrass, Large","crabgrass [4]; Preemergence, 250 g ai/ha",100
same,Sunflower plant response rating,[5]; [8],85
same,"Plant response rating, Sunflower",[5]; [14],50
same,"Foxtail, Giant plant response rating",giant foxtail; [20],90
same,"Foxtail, Giant plant response rating",giant foxtail; [11],90
same,"Foxtail, Giant plant response rating",giant foxtail; [12],100
same,"Plant response rating, Foxtail, Giant","giant foxtail; Preemergence, 500 g ai/ha",100
same,Morningglory plant response rating,morningglory; [20],60
same,Morningglory plant response rating,morningglory; [11],80
same,Morningglory plant response rating,morningglory; [12],60
same,"Plant response rating, Morningglory","morningglory; Preemergence, 500 g ai/ha",90
same,Goosegrass plant response rating,Goosegrass; [8],100
same,"Plant response rating, Goosegrass",Goosegrass; Preemergence,100
same,"Plant response rating (0 to 100), Goosegrass","Goosegrass; Preemergence, 250 g ai/ha",100
